Here are results for two compounds from patent US6413982B1, “4-substituted quinoline derivatives” (Neurogen Corporation, priority 1999, dated 2002).

In the experiment the target is T1, NK-3 receptor (Homo sapiens, UniProt P29371).
T1 construct: expressed in transfected cells; total cellular membranes
T1 sequence (P29371 1-465): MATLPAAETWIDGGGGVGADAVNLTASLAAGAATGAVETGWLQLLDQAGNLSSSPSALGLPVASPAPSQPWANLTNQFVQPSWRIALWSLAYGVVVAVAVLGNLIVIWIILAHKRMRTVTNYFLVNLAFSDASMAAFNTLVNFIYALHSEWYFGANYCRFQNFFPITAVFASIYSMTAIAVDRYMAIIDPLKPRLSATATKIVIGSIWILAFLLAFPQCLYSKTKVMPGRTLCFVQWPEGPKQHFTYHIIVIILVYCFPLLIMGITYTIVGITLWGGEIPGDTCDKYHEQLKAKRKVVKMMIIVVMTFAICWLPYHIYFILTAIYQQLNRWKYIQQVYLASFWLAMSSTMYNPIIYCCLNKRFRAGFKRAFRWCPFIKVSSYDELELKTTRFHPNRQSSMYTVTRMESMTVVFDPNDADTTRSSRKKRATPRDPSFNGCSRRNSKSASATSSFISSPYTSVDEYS
Put plainly: Assay for NK-3 receptor binding activity. As to conditions: displacement of 125I-methylPhe7-neurokinin B, membranes of CHO cells expressing cloned human NK-3 receptor, 2 hours at 4° C. The protocol:
The following assay is a standard assay for NK-3 receptor binding activity. Assays are performed as described in Krause et al (Proc. Natl. Acad. Sci. USA 94: 310-315, 1997). The NK-3 receptor complementary DNA is cloned from human hypothalamic RNA using standard procedures. The receptor cDNA is inserted into the expression vector pM^2 to transfect the mammalian Chinese hamster ovary cell line, and a stably expressing clonal cell line is isolated, characterized and used for the current experiments. Cells are grown in minimal essential medium alpha containing 10% fetal bovine serum and 250 μg/ml G418. Cells are liberated from cell culture plates with No-zyme (PBS base, JRH Biosciences), and harvested by low speed centrifugation. […]
Receptor binding assays contain a total volume of 200 μl containing 50 μg membrane protein, 0.05-0.15 nM 125I-methylPhe7-neurokinin B, drug or blocker in TBS containing 1.0 mg/ml bovine serum albumen, 0.2 mg/ml bacitracin, 20 μg/ml leupeptin and 20 μg/ml chymostatin. […] After filtration of the incubation mixture, filters are rinsed 4 times with ice-cold TBS containing 0.01% sodium dodecyl sulfate and radioactivity is quantitated in a β-plate scintillation counter. […] Data are collected in duplicate determinations, averaged, and the percent inhibition of total specific binding is calculated. […]

Molecules are shown by their SMILES.

The compound `CCC1(c2ccccc2)CN=C(c2c(OC)c(-c3ccccc3)nc3ccccc23)N1` (centres unmarked) [Example 1, 5-Ethyl-5-phenyl-2-(3-methoxy-2-phenylquinolin-4-yl)-imidazoline] gave an IC50 of 19 nM.

With `CCC1(c2ccccc2)CN=C(c2c(C)c(-c3ccccc3)nc3ccccc23)N1` (centres unmarked) [Example 2], the concentration for half-maximal inhibition (IC50) is 0.3 nM.
